Test results published in article PMC4165461 (Analytical Chemistry, 2014).
*1 amine or outer side, *2 acyl side, *3 side chain or, on linkers, in order; H or OH if unused. Where a SMILES comes first, the peptide text is derived from it. CO = O=C([*:1])[*:2]

test system: CC(C)[C@H](NC(=O)[C@H](Cc1ccccc1)NC(=O)CNC(=O)[C@H](Cc1ccccc1)NC(=O)CN)C(=O)NCC(=O)NCC(=O)O; assay: purified protein, by the assay type; conditions: other: substrate 0 to 400 μM, 50 nM cathepsin B; 37.0 °C

Molecule | Km
cathepsin B (Homo sapiens) | 270 ± 34 µM

molecular target: cathepsin B (Homo sapiens, UniProt P07858); assay: Cathepsin B assay by droplet ESI-MS; conditions: 25 μM each

result in the 24-compound pilot screen | Molecule
detected as inhibitors | CC(C)C[C@H](NC(=O)[C@H]1O[C@@H]1C(=O)O)C(=O)NCCCCN=C(N)N (relative stereo) [E-64, L-trans-3-carboxyoxiran-2-carbonyl-L-leucylagmatine]
detected as inhibitors | CC(C)[C@H](NC(=O)[C@H](CCCNC(=N)N)NC(=O)N[C@@H](Cc1ccccc1)C(=O)O)C(=O)N[C@H](C=O)CCCNC(=N)N [antipain, [(S)-1-carboxy-2-phenylethyl]carbamoyl-L-arginyl-L-valyl-argininal] ({Phe-CO}-Arg-Val-Arg-aldehyde)
detected as inhibitors | CC(C)C[C@H](NC(=O)[C@@H](NC(=O)N[C@@H](Cc1ccccc1)C(=O)O)[C@@H]1CCN=C(N)N1)C(=O)N[C@H](C=O)Cc1ccccc1 [chymostatin, N-(Nα-carbonyl-[S,S]-α-(2-iminohexahydro-4-pyrimidyl)glycine-X-Phe-al)-Phe, X = Leu, Val, or Ile]
detected as inhibitors | CC(=O)N[C@@H](CC(C)C)C(=O)N[C@@H](CC(C)C)C(=O)N[C@H](C=O)CCCNC(=N)N [leupeptin, N-acetyl-L-leucyl-L-leucyl-L-argininal]

same assay, conditions: read-out: reduction of reaction yield in the primary screen

Molecule | inhibition at 25 µM
CCN(CC)C(=S)SSC(=S)N(CC)CC [disulfiram] | ≥ 40%
Oc1c(Cl)cc(Cl)c(Cl)c1Cc1c(O)c(Cl)cc(Cl)c1Cl [hexachlorophene] | ≥ 40%
Oc1cc(Cl)ccc1Oc1ccc(Cl)cc1Cl [triclosan] | ≥ 40%

Further lines, results first:

inhibition at 25 µM | Molecule
≥ 40% | [H]/N=C(\N/C(=N/[H])NCCCCCCNC(=N)NC(=N)Nc1ccc(Cl)cc1)Nc1ccc(Cl)cc1 [Chlorhexidine, chlorhexidine]
≥ 40% | O=c1cc(-c2ccc(O)c(O)c2)oc2cc(O)cc(O)c12 [Luteolin, luteolin]
≥ 40% | CSc1nc2cc(Cl)c(Oc3cccc(Cl)c3Cl)cc2[nH]1 [Triclabendazole, triclabendazole]
≥ 40% | O=C1c2c(O)cccc2Cc2cccc(O)c21 [anthralin]
≥ 40% | CC(=O)Oc1cccc2c1C(=O)c1c(OC(C)=O)cc(C(=O)O)cc1C2=O [diacerein]
≥ 40% | C=C(CC)C(=O)c1ccc(OCC(=O)O)c(Cl)c1Cl [ethacrynic acid]
≥ 40% | O=C(c1ccc(OCCN2CCCCC2)cc1)c1c(-c2ccc(O)cc2)sc2cc(O)ccc12 [raloxifene]
